Assay results published in patent publication US20150352108A1, “AMINO-PYRIMIDINE COMPOUNDS AS INHIBITORS OF TBK1 AND/OR IKK EPSILON” (Alzheimer's Institute of America, priority 2009, published 2015).
Where two headings read alike, the source gives them in different places.

Experiments:
TBK1 = biological target: T1, TBK1 (Homo sapiens, UniProt Q9UHD2); experiment: In-vitro TBK1 kinase assay ([γ33]ATP filter-plate); assay type: biochemical
T1 construct: His-tag; made in house; host or cells: Sf9 insect cells
T1 sequence (Q9UHD2 1-729): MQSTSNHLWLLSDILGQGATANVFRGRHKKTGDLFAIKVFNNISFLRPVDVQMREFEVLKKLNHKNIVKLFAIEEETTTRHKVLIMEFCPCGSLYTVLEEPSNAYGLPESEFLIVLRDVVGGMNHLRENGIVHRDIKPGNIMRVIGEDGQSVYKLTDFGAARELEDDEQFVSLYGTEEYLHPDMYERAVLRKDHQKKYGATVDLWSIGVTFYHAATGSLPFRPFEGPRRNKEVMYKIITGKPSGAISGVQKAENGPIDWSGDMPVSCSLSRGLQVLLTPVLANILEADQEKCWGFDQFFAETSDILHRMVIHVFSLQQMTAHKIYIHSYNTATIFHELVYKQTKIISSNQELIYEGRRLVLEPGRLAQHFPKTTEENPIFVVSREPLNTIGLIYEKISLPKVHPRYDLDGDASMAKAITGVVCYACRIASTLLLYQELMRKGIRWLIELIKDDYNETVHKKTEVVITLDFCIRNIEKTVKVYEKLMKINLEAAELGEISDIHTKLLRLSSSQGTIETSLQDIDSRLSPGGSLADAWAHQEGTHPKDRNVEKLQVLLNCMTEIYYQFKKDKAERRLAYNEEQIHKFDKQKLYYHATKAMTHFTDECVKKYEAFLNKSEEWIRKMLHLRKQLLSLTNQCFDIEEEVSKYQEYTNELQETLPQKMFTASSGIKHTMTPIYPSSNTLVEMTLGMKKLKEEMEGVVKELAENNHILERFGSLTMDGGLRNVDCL
Experimental: IKKε enzyme was produced as a His-tag fusion in Sf9 cells and used at a final concentration of […]. TBK1 enzyme was produced as a His-tag fusion in Sf9 cells and used at a final concentration of 0.1 μg/ml. Kinase reactions were carried out in reaction buffer using myelin basic protein (Millipore, Ballerica, Mass.) or casein (Sigma, St. Louis, Mo.) as substrate at an ATP concentration equal to twice the Km,ATP value for each enzyme, corresponding to 32 μM ATP for IKKε and 60 μM ATP for TBK1, in the presence of 0.3 μCi [γ^33]ATP (PerkinElmer, Waltham, Mass.). Final enzyme concentrations were 0.1 or 0.015 μg/ml (IKKε) and 0.1 or 0.02 μg/ml (TBK1), representing “normal” and “sensitized” assay conditions respectively. Test compounds (or DMSO solvent as a control) were added prior to initiation of the reactions. Reactions were terminated after 30-45 minutes by adding 3% phosphoric acid. Terminated reactions were transferred to P-81 cellulose phosphate filterplates (Whatman, Inc., Piscataway, N.J.) and washed with 1% phosphoric acid on a vacuum apparatus. After air drying, scintillant (PerkinElmer, Waltham, Mass.) was added and the plates were read on a PerkinElmer TopCount NXT instrument. Counts were normalized to DMSO controls after background subtraction.

IKKε = biological target: T2, IKKε (Homo sapiens, UniProt Q14164); experiment: In-vitro IKKε kinase assay ([γ33]ATP filter-plate); assay type: biochemical
T2 construct: His-tag; made in house; host or cells: Sf9 insect cells
T2 sequence (Q14164 1-716): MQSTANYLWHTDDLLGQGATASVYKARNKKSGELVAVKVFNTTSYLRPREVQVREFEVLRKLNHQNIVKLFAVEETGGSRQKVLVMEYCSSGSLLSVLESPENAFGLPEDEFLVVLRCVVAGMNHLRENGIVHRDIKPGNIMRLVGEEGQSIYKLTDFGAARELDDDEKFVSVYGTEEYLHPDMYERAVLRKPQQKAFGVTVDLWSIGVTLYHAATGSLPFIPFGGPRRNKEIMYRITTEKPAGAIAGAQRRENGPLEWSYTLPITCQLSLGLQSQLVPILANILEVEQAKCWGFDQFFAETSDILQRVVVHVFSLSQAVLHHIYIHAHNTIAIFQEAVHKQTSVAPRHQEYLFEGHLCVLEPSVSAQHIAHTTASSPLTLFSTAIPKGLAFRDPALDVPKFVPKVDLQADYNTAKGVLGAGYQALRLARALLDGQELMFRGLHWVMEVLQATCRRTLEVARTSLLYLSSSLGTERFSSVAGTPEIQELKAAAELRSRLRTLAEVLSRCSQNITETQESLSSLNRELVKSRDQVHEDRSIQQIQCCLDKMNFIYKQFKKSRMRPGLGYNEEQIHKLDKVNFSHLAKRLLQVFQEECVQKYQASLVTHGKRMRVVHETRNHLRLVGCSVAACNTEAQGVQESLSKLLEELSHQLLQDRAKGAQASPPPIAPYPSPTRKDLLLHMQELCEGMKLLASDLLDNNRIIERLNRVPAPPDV
Summary of the method: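 His-tagged IKKε and TBK1 from Sf9 cells were assayed with myelin basic protein or casein and [γ33]ATP at 2×Km ATP (32 μM for IKKε, 60 μM for TBK1). Enzyme was 0.1 or 0.015 μg/ml for IKKε and 0.1 or 0.02 μg/ml for TBK1 (normal/sensitized). Reactions ran 30-45 min, were filter-captured, scintillation-counted, and normalized to DMSO after background subtraction.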

[1] = text bins, read-out: IC50 for inhibition of the kinase activity of TBK1
[2] = text bins, read-out: IC50 for inhibition of the kinase activity of IKKε

Q: Which IC50 (TBK1; [1]) does the source give for COc1cc(Nc2nccc(-c3ccc(OC4CCOCC4)c(C#N)c3)n2)ccc1C(N)=O [compound 311, 4-({4-[3-cyano-4-(tetrahydro-2H-pyran-4-yloxy)phenyl]pyrimidin-2-yl}amino)-2-methoxybenzamide] here?
A: The IC50 was less than 0.01 µM.

Q: What about the IC50 (IKKε; [2]) of the same molecule?
A: The IC50 was less than 0.005 µM.

Q: Which results are given for CS(=O)(=O)N1CCC(COc2ccc(-c3ccnc(Nc4ccc(N5CCOCC5)cc4)n3)cc2C#N)CC1 [Example 76, 2-{[1-(methylsulfonyl)piperidin-4-yl]methoxy}-5-(2-{[4-(morpholin-4-yl)phenyl]amino}pyrimidin-4-yl)benzonitrile]?
A: IC50 (TBK1; [1]): < 0.01 µM; IC50 (IKKε; [2]): < 0.005 µM

Q: Which results are given for COc1ccc(Nc2nc(-c3ccc(OC4CCOCC4)c(C#N)c3)c3nc[nH]c3n2)cc1OC [compound 532, 5-{2-[(3,4-Dimethoxyphenyl)amino]-3H-purin-6-yl}-2-(tetrahydro-2H-pyran-4-yloxy)benzonitrile]?
A: IC50 (TBK1; [1]): 0.01 to 0.1 µM; IC50 (IKKε; [2]): 0.005 to 0.05 µM

Q: How did the IC50 (TBK1; [1]) turn out when CCN(CC)CCN(CC)C(=O)Cc1ccc(Nc2nccc(-c3ccc(NC(=O)C(C)C)c(C#N)c3)n2)cc1 [compound 425, N-[2-cyano-4-(2-{[4-(2-{[2-(diethylamino)ethyl] (ethyl)amino}-2-oxoethyl)phenyl]amino}pyrimidin-4-yl)phenyl]-2-methylpropanamide] was run?
A: The IC50 was less than 0.01 µM.

Q: And the IC50 (IKKε; [2])?
A: The IC50 was 0.005 to 0.05 µM.

Q: Which results are given for COc1cc(Nc2nccc(-c3ccc(OC4CCOCC4)c(C#N)c3)n2)ccc1S(=O)(=O)NCCCN(C)C [Example 237, 4-({4-[3-cyano-4-(tetrahydro-2H-pyran-4-yloxy)phenyl]pyrimidin-2-yl}amino)-N-[3-(dimethylamino)propyl]-2-methoxybenzene-sulfonamide]?
A: IC50 (TBK1; [1]): < 0.01 µM; IC50 (IKKε; [2]): < 0.005 µM

Q: For CC(C)Oc1ccc(-c2ccnc(Nc3ccc(N4CCN(C)CC4)cc3)n2)cc1C#N [compound 335, 5-(2-{[4-(4-Methylpiperazin-1-yl)phenyl]amino}pyrimidin-4-yl)-2-(propan-2-yloxy)benzonitrile], which IC50 (TBK1; [1]) is on record?
A: Its IC50 is less than 0.01 µM.

Q: What about the IC50 (IKKε; [2]) of the same molecule?
A: The IC50 was less than 0.005 µM.

Q: Which IC50 (TBK1; [1]) does the source give for COc1ccc(Nc2nccc(-c3ccc(OC(C)(C)C)c(C#N)c3)n2)cc1OC [Example 169, 2-tert-Butoxy-5-{2-[(3,4-dimethoxyphenyl)amino]pyrimidin-4-yl}benzonitrile] here?
A: The IC50 was 0.01 to 0.1 µM.

Q: What about the IC50 (IKKε; [2]) of the same molecule?
A: Its IC50 is 0.005 to 0.05 µM.

Q: What does the source list for CCN(CC)CCN(CC)C(=O)Cc1cccc(Nc2nccc(-c3ccc(OC4CCOCC4)c(C#N)c3)n2)c1 [compound 409, 2-[3-({4-[3-Cyano-4-(tetrahydro-2H-pyran-4-yloxy)phenyl]pyrimidin-2-yl}amino)phenyl]-N-[2-(diethylamino)ethyl]-N-ethylacetamide]?
A: IC50 (TBK1; [1]): < 0.01 µM; IC50 (IKKε; [2]): 0.005 to 0.05 µM

Q: How did the IC50 (TBK1; [1]) turn out when COc1ccc(-c2ccnc(Nc3ccc(S(=O)(=O)NCCCO)c(OC)c3)n2)cc1C#N [compound 303, 4-{[4-(3-Cyano-4-methoxyphenyl)pyrimidin-2-yl]amino}-N-(3-hydroxypropyl)-2-methoxybenzene-sulfonamide] was run?
A: Its IC50 is 0.01 to 0.1 µM.

Q: What about the IC50 (IKKε; [2]) of the same molecule?
A: Its IC50 is 0.005 to 0.05 µM.

Q: How did the IC50 (TBK1; Table 3, read-out: TBK1 IC50) turn out when N#Cc1cc(-c2ccnc(Nc3ccc(N4CCOCC4)cc3)n2)ccc1OC1CCN(C(=O)CO)CC1 [Example 190, 2-{[1-(Hydroxyacetyl)piperidin-4-yl]oxy}-5-(2-{[4-(morpholin-4-yl)phenyl]amino}pyrimidin-4-yl)benzonitrile] was run?
A: Its IC50 is 0.0003 µM.

Q: What about the IC50 (TBK1; [1]) of the same molecule?
A: Its IC50 is less than 0.01 µM.

Q: And the IC50 (IKKε; Table 3, read-out: IKKε IC50)?
A: Its IC50 is 0.0004 µM.

Q: And the IC50 (IKKε; [2])?
A: Its IC50 is less than 0.005 µM.

Q: Which IC50 (TBK1; [1]) does the source give for C[C@H](O)C(=O)N1CCC(Oc2ccc(-c3ccnc(Nc4ccc(C(=O)NCCN(C)C)cc4)n3)cc2C#N)CC1 [compound 367, 4-({4-[3-cyano-4-({1-[(2S)-2-hydroxypropanoyl]piperidin-4-yl}oxy)phenyl]pyrimidin-2-yl}amino)-N-[2-(dimethylamino)ethyl]benzamide] here?
A: Its IC50 is less than 0.01 µM.

Q: And the IC50 (IKKε; [2])?
A: Its IC50 is less than 0.005 µM.

Q: For CC1(C)CC1C(=O)Nc1ccc(-c2ccnc(Nc3ccc(N4CCOCC4)cc3)n2)cc1C#N (stereo not shown) [compound 554, N-[2-Cyano-4-(2-{[4-(morpholin-4-yl)phenyl]amino}pyrimidin-4-yl)phenyl]-2,2-dimethylcyclopropane-carboxamide], which IC50 (TBK1; [1]) is on record?
A: The IC50 was less than 0.01 µM.

Q: What about the IC50 (IKKε; [2]) of the same molecule?
A: Its IC50 is 0.005 to 0.05 µM.

Q: Which IC50 (TBK1; [1]) does the source give for COc1cc(Nc2nccc(-c3ccc(OC4CCN(C(=O)[C@H](C)O)CC4)c(C#N)c3)n2)ccc1C(=O)NCCN(C)C [Example 287, 4-({4-[3-cyano-4-({1-[(2S)-2-hydroxypropanoyl]piperidin-4-yl}oxy)phenyl]pyrimidin-2-yl}amino)-N-[2-(dimethylamino)ethyl]-2-methoxybenzamide] here?
A: Its IC50 is less than 0.01 µM.

Q: What about the IC50 (IKKε; [2]) of the same molecule?
A: Its IC50 is less than 0.005 µM.

Q: With C[C@H](O)C(=O)N1CCC(Oc2ccc(-c3ccnc(Nc4ccc(CN5CCOCC5)cc4)n3)cc2C#N)CC1 [compound 509, 2-({1-[(2S)-2-hydroxypropanoyl]piperidin-4-yl}oxy)-5-(2-{[4-(morpholin-4-ylmethyl)phenyl]amino}pyrimidin-4-yl)benzonitrile] as the molecule, how does the IC50 (TBK1; [1]) read?
A: The IC50 was less than 0.01 µM.

Q: What about the IC50 (IKKε; [2]) of the same molecule?
A: The IC50 was 0.005 to 0.05 µM.

Q: CC(C)COc1ccc(-c2ccnc(Nc3ccc(CS(=O)(=O)NCCO)cc3)n2)cc1C#N [compound 645, 1-[4-({4-[3-Cyano-4-(2-methylpropoxy)phenyl]pyrimidin-2-yl}amino)phenyl]-N-(2-hydroxyethyl) methanesulfonamide] was tested. Which IC50 (TBK1; [1]) did it give?
A: Its IC50 is less than 0.01 µM.

Q: And the IC50 (IKKε; [2])?
A: The IC50 was less than 0.005 µM.

Q: Which IC50 (TBK1; [1]) does the source give for COc1cc(Nc2nccc(-c3ccc(OC4CCN(C(=O)OC(C)(C)C)CC4)c(C#N)c3)n2)ccc1N1CCOCC1 [Example 263, tert-butyl 4-[2-cyano-4-(2-{[3-methoxy-4-(morpholin-4-yl)phenyl]amino}pyrimidin-4-yl)phenoxy]piperidine-1-carboxylate] here?
A: Its IC50 is 0.1 to 0.5 µM.

Q: Which IC50 (TBK1; [1]) does the source give for N#Cc1cccc(-c2ccnc(Nc3ccc(Cl)cc3)n2)c1 [compound 340, 3-{2-[(4-Chlorophenyl)amino]pyrimidin-4-yl}benzonitrile] here?
A: The IC50 was 0.1 to 0.5 µM.

Q: How did the IC50 (TBK1; [1]) turn out when N#Cc1cccc(-c2ccnc(Nc3ccc(OCCN4CCOCC4)cc3)n2)c1 [Example 283, 3-[2-({4-[2-(Morpholin-4-yl)ethoxy]phenyl}amino)pyrimidin-4-yl]benzonitrile] was run?
A: The IC50 was 0.01 to 0.1 µM.

Q: For COc1cc(Nc2nccc(-c3ccc(OC4CCN(C(=O)CO)C4)c(C#N)c3)n2)ccc1OCCOCCN (stereo not shown) [Example 199, 5-[2-({4-[2-(2-aminoethoxy)ethoxy]-3-methoxyphenyl}amino)pyrimidin-4-yl]-2-{[1-(hydroxyacetyl)pyrrolidin-3-yl]oxy}benzonitrile], which IC50 (IKKε; [2]) is on record?
A: Its IC50 is 0.005 to 0.05 µM.

Q: How did the IC50 (IKKε; [2]) turn out when COc1cc(Nc2nccc(-c3ccc(OC4CCNCC4)c(C#N)c3)n2)ccc1S(=O)(=O)NCCCO [compound 399, 4-({4-[3-cyano-4-(piperidin-4-yloxy)phenyl]pyrimidin-2-yl}amino)-N-(3-hydroxypropyl)-2-methoxybenzene-sulfonamide] was run?
A: The IC50 was 0.005 to 0.05 µM.
